Measured values reported in patent publication US6296785A, “Indeno-fused photochromic naphthopyrans” (PPG Industries Ohio, Inc., priority 2000, dated 2001).

Columns and labels:
Format in all cases: physicochemical
[1] = Relative ΔOD at Saturation Test; details: ΔOD at saturation (Band A)/ΔOD at saturation (Band B)×100
Excerpt: In accordance with the present invention, it has now been discovered that certain novel indeno[2,1-f]naphtho[1,2-b]pyrans having two absorption bands in the activated (colored) state, an acceptable fade rate, high activated intensity, a high coloration rate and a rating of 80 or higher in the Relative ΔOD at Saturation Test may be prepared. The Relative ΔOD at Saturation Test is described in Example 21. The ratings of the test are defined herein as the result obtained when the optical density of band "A" is divided by the optical density of band "B" and multiplied by 100. It is believed that compounds having a rating of 80 or higher are most valuable for formulating neutral grays, greens and browns for commercial photochromic ophthalmic eyeware.
(§1) Testing was done with the photochromic compounds described in Examples 1 through 20 and Comparative Examples 1 through 3 in the following manner. A quantity of photochromic compound calculated to yield a 1.5×10^-3 molal solution was added to a flask containing 50 grams of a monomer blend of 4 parts ethoxylated bisphenol A dimethacrylate (BPA 2EO DMA), 1 part poly(ethylene glycol) 600 dimethacrylate, and 0.033 weight percent 2,2'-azobis(2-methyl propionitrile) (AIBN). The photochromic compound was dissolved into the monomer blend by stirring and gentle heating, if necessary. After a clear solution was obtained, it was poured into a flat sheet mold having the interior dimensions of 2.2 mm×6 inches (15.24 cm)×6 inches (15.24 cm). The mold was sealed and placed in a horizontal air flow, programmable oven programmed to increase the temperature from 40° C. to 95° C. over a 5 hour interval, hold the temperature at 95° C. for 3 hours, lower it to 60° C. over a 2 hour interval and then hold it at 60° C. for 16 hours. After the mold was opened, the polymer sheet was cut using a diamond blade saw into 2 inch (5.1 centimeters) test squares.
(§2) The photochromic test squares of Part A were tested for photochromic response rates on an optical bench. Prior to testing on the optical bench, the photochromic test squares were exposed to 365 nanometer ultraviolet light for about 15 minutes to activate the photochromic compounds and then placed into a 76° C. oven for about 15 minutes to bleach the photochromic compounds. The test squares were then cooled to room temperature, exposed to fluorescent room lighting for at least 2 hours and then kept covered for at least 2 hours prior to testing on an optical bench maintained at 72° F. (22.2° C.). The bench was fitted with a 250 watt Xenon arc lamp, a remote controlled shutter, a copper sulfate bath acting as a heat sink for the arc lamp, a Schott WG-320 nm cut-off filter which removes short wavelength radiation; neutral density filter(s) and a sample holder in which the square to be tested was inserted. The power output of the optical bench, i.e., the dosage of light that the sample lens would be exposed to, was calibrated with a photochromic test square used as a reference standard. […] The UV-A detector was placed into the sample holder and the light output was measured. Adjustments to the power output were made by increasing or decreasing the lamp wattage or by adding or removing neutral density filters in the light path.
Change in optical density (ΔOD) was determined by inserting a test square in the bleached state into the sample holder, adjusting the transmittance scale to 100%, opening the shutter from the Xenon lamp to provide ultraviolet radiation to change the test square from the bleached state to an activated (i.e., darkened) state, measuring the transmittance in the activated state, and calculating the change in optical density according to the formula: ΔOD=log(100/% Ta), where % Ta is the percent transmittance in the activated state and the logarithm is to the base 10. […]

[2] = photochromic response of test squares on an optical bench (sensitivity, saturation optical density, bleach rate); details: for ΔOD @ Saturation (Band A) / ΔOD @ Saturation (Band B): UV exposure 15 minutes; for ΔOD @ Saturation (Band A) / Sensitivity ΔOD/MIN (Band A) / ΔOD @ Saturation (Band B) / Sensitivity ΔOD/MIN (Band B): 72° F. (22.2° C.), polymer test square; for Sensitivity ΔOD/MIN (Band A) / Sensitivity ΔOD/MIN (Band B): first five (5) seconds of UV exposure, expressed per minute; for Bleach Rate T 1/2: measured at band B, room temperature (72° F., 22.2° C.) after removal of activating light
Method: as §1, §2
A monitoring, collimated beam of light from a tungsten lamp was passed through the square at a small angle (approximately 30°) normal to the square. After passing through the square, the light from the tungsten lamp was directed to a detector through Spectral Energy Corp. GM-200 monochromator set at the previously determined visible lambda max of the photochromic compound being measured. The output signals from the detector were processed by a radiometer.
Change in optical density (ΔOD) was determined by inserting a test square in the bleached state into the sample holder, adjusting the transmittance scale to 100%, opening the shutter from the Xenon lamp to provide ultraviolet radiation to change the test square from the bleached state to an activated (i.e., darkened) state, measuring the transmittance in the activated state, and calculating the change in optical density according to the formula: ΔOD=log(100/% Ta), where % Ta is the percent transmittance in the activated state and the logarithm is to the base 10.
The ΔOD/Min, which represents the sensitivity of the photochromic compound's response to UV light, was measured over the first five (5) seconds of UV exposure, then expressed on a per minute basis. The saturation optical density (ΔOD@ Saturation) was taken under identical conditions as the ΔOD/Min, except UV exposure was continued for 15 minutes. […]

[3] = lambda max (Vis) of activated photochromic test squares in a Varian Cary 3 uv-visible spectrophotometer; details: activated form in test square
Method: as §1
The lambda max (Vis) is the wavelength in the visible spectrum at which the maximum absorption of the activated (colored) form of the photochromic compound in a test square occurs. The lambda max (Vis) wavelengths reported in Table 1 were determined by testing the photochromic test square polymerizates of Part A in a Varian Cary 3 uv-visible spectrophotometer. The bleach rate (T 1/2) is the time interval in seconds for the absorbance of the activated form of the photochromic compound in the test squares to read one half the highest absorbance at room temperature (72° F., 22.2° C.) after removal of the source of activating light.
For each lambda max visible, the corresponding optical density (Δ OD/Min and Δ OD at saturation) for the desired compounds of the Examples and Comparative Examples are tabulated in Table 1 for the two bands (A and B) of peak absorption for each compound. Table 1 also includes the bleach rate (T 1/2) for each of the compounds as measured at band B. The ratings of the Relative Δ OD at Saturation Test for the bands A and B of each of the Examples and Comparative Examples are calculated as follows: Δ OD at saturation (Band A)/Δ OD at saturation (Band B)×100.

Row | SMILES | Relative ΔOD at Saturation (rating) [1] | ΔOD @ Saturation (Band A) [2] | Sensitivity ΔOD/MIN (Band A) [2] | ΔOD @ Saturation (Band B) [2] | Sensitivity ΔOD/MIN (Band B) [2] | Bleach Rate T 1/2 [2] | λ MAX Vis (Band A) [3] | λ MAX Vis (Band B) [3]
1 | COc1ccc(C2(c3ccc(N4CCOCC4)cc3)C=Cc3c4c(c5cc(OC)c(OC)cc5c3O2)-c2ccccc2C4c2ccccc2)cc1 (stereo not drawn) [Example 8, 3-(4-methoxyphenyl)-3-(4-morpholinophenyl)-6,7-dimethoxy-13-phenyl-3H, 13H-indeno[2,1-f]naphtho[1,2-b]pyran] | 98 | 0.43 | 0.14 ΔOD/MIN | 0.44 | 0.18 ΔOD/MIN | 179 s | 484 nm | 603 nm
2 | CCC1(O)c2cc(OC)ccc2-c2c1c1c(c3cc(OC)ccc23)OC(c2ccc(OC)cc2)(c2ccc(OC)cc2)C=C1 (stereo not drawn) [Comp. Ex. 2, 3,3-di(4-methoxyphenyl)-6,11-dimethoxy-13-hydroxy-13-ethyl-3H-13H-indeno[2,1-f]naphtho[1,2-b]pyran, reference compound] | 70 | 0.36 | 0.22 ΔOD/MIN | 0.51 | 0.32 ΔOD/MIN | 130 s | 499 nm | 607 nm
3 | COc1ccc(C2(c3ccc(OC)cc3)C=Cc3c4c(c5c(OC)c(OC)c(OC)cc5c3O2)-c2ccccc2C4c2ccccc2)cc1 (stereo not drawn) [Example 11, 3,3-di(4-methoxyphenyl)-6,7,8-trimethoxy-13-phenyl-3H,13H-indeno[2,1-f]naphtho[1,2-b]pyran] | 106 | 0.66 | 0.28 ΔOD/MIN | 0.62 | 0.25 ΔOD/MIN | 183 s | 482 nm | 581 nm
4 | CCCCC1(O)c2cc(OC)c(OC)cc2-c2c1c1c(c3cc(OC)c(OC)cc23)OC(c2ccc(OC)cc2)(c2ccc(N3CCOCC3)cc2)C=C1 (stereo not drawn) [Example 13, 3-(4-methoxyphenyl)-3-(4-morpholinophenyl)-6,7,10,11-tetramethoxy-13-hydroxy-13-butyl-3H,13H-indeno[2,1-f]naphtho[1,2-b]pyran] | 105 | 0.39 | 0.27 ΔOD/MIN | 0.37 | 0.25 ΔOD/MIN | 85 s | 482 nm | 634 nm
5 | CCC1(O)c2cc(OC)c(OC)cc2-c2c1c1c(c3cc(OC)c(OC)cc23)OC(c2ccc(OC)cc2)(c2ccc(N3CCOCC3)cc2)C=C1 (stereo not drawn) [Example 12, 3-(4-methoxyphenyl)-3-(4-morpholinophenyl)-6,7,10,11-tetramethoxy-13-hydroxy-13-ethyl-3H,13H-indeno[2,1-f]naphtho[1,2-b]pyran] | 106 | 0.46 | 0.26 ΔOD/MIN | 0.43 | 0.27 ΔOD/MIN | 130 s | 480 nm | 632 nm
6 | COc1ccc(C2(c3ccc(N4CCOCC4)cc3)C=Cc3c4c(c5cc(OC)c(OC)cc5c3O2)-c2ccccc2C4(C)OC)cc1 (stereo not drawn) [Example 20, 3-(4-methoxyphenyl)-3-(4-morpholinophenyl)-6,7-dimethoxy-13-methoxy-13-methyl-3H,13H-indeno[2,1-f]naphtho[1,2-b]pyran] | 92 | 0.34 | 0.16 ΔOD/MIN | 0.37 | 0.17 ΔOD/MIN | 105 s | 483 nm | 604 nm
7 | COc1ccc(C2(c3ccc(N4CCOCC4)cc3)C=Cc3c4c(c5cc(OC)c(OC)cc5c3O2)-c2ccccc2C4(C)C)cc1 (stereo not drawn) [Example 9, 3-(4-methoxyphenyl)-3-(4-morpholinophenyl)-6,7-dimethoxy-13,13-dimethyl-3H,13H-indeno[2,1-f]naphtho[1,2-b]pyran] | 102 | 0.60 | 0.18 ΔOD/MIN | 0.59 | 0.23 ΔOD/MIN | 204 s | 477 nm | 597 nm
8 | CCCCC1(O)c2ccccc2-c2c1c1c(c3cc(OC)c(OC)cc23)OC(c2ccc(OC)cc2)(c2ccc(OC)cc2)C=C1 (stereo not drawn) [Example 15, 3,3-di(4-methoxyphenyl)-6,7-dimethoxy-13-hydroxy-13-butyl-3H,13H-indeno[2,1,-f]naphtho[1,2-b]pyran] | 168 | 0.37 | 0.29 ΔOD/MIN | 0.22 | 0.18 ΔOD/MIN | 76 s | 457 nm | 579 nm
9 | CCC1(O)c2cc(OC)c(OC)cc2-c2c1c1c(c3cc(OC)c(OC)cc23)OC(c2ccc(OC)cc2)(c2ccc(OC)cc2)C=C1 (stereo not drawn) [Example 3, 3,3-di(4-methoxyphenyl)-6,7,10,11-tetramethoxy-13-hydroxy-13-ethyl-3H,13H-indeno[2,1-f]naphtho[1,2-b]pyran] | 151 | 0.62 | 0.34 ΔOD/MIN | 0.41 | 0.24 ΔOD/MIN | 155 s | 460 nm | 623 nm
